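Tested at 5 concentrations; 48 h exposure; 96-well plates; endpoints linearly interpolated, else capped at highest concentration. At the TGI there is no net growth.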
What was measured:
Assay in all cases: inhibition of tumour cell growth, NCI panel, 48 h
[1] = tested on: NCI-H522 lung
[2] = tested on: HOP-62 NSCLC
[3] = tested on: SK-OV-3 ovarian
[4] = tested on: UACC-257 melanoma
[5] = tested on: ACHN renal
[6] = tested on: U251 CNS
[7] = tested on: M14 melanoma
[8] = tested on: HT29 colon
[9] = tested on: HCC-2998 colon
[10] = tested on: A549 NSCLC
[11] = tested on: SF-295 CNS
[12] = tested on: RXF 393 renal
[13] = tested on: HCT-15 colon
[14] = tested on: NCI-H460 lung
[15] = tested on: OVCAR-4 ovarian
[16] = tested on: HL-60(TB) leukemia
[17] = tested on: EKVX NSCLC
[18] = tested on: SK-MEL-28 melanoma
[19] = tested on: UACC-62 melanoma
[20] = tested on: DU-145 prostate
[21] = tested on: MCF7 breast
[22] = tested on: SR leukemia
[23] = tested on: HOP-92 NSCLC
[24] = tested on: HCT-116 colon
[25] = tested on: KM12 colon
[26] = tested on: RPMI-8226 leukemia
[27] = tested on: OVCAR-3 ovarian
[28] = tested on: UO-31 renal
[29] = tested on: LOX IMVI melanoma
[30] = tested on: HS 578T breast
[31] = tested on: SNB-19 CNS
[32] = tested on: SF-539 CNS
[33] = tested on: A498 renal
[34] = tested on: SK-MEL-5 melanoma
[35] = tested on: T-47D breast
[36] = tested on: MALME-3M melanoma
[37] = tested on: OVCAR-5 ovarian
[38] = tested on: TK-10 renal
[39] = tested on: 786-0 renal
[40] = tested on: MDA-MB-231 breast
[41] = tested on: SNB-75 CNS
[42] = tested on: SK-MEL-2 melanoma
[43] = tested on: PC-3 prostate
[44] = tested on: OVCAR-8 ovarian
[45] = tested on: SW-620 colon
[46] = tested on: MDA-N
[47] = tested on: SN12C renal
[48] = tested on: SF-268 CNS
[49] = tested on: NCI/ADR-RES ovarian
[50] = tested on: MOLT-4 leukemia
[51] = tested on: NCI-H23 lung
[52] = tested on: CAKI-1 renal
[53] = tested on: MDA-MB-435
[54] = tested on: NCI-H226 lung
[55] = tested on: COLO 205 colon
[56] = tested on: BT-549 breast
[57] = tested on: CCRF-CEM leukemia
[58] = tested on: K-562 leukemia
[59] = tested on: IGROV1 ovarian

Measured: TGI

Clc1ccc2oc(CCC3CCCCC3)nc2c1
35 µM: [34]
48.3 µM: [9]
70.7 µM: [25]
60.7 µM: [50]
43.2 µM: [6]
83.8 µM: [8]
59.6 µM: [14]
36.1 µM: [27]
45.1 µM: [12]
57.1 µM: [54]
72.8 µM: [2]
61.2 µM: [1]
82.9 µM: [17]
50.2 µM: [55]
69.2 µM: [13]
77.7 µM: [52]
84.4 µM: [23]
51.3 µM: [21]
42.6 µM: [16]
58.1 µM: [41]
61.5 µM: [22]
25.2 µM: [29]
81.8 µM: [28]
98.5 µM: [51]
82.3 µM: [33]
94.4 µM: [53]
70.8 µM: [57]
39.1 µM: [42]
62.3 µM: [3]
79.3 µM: [4]
56.2 µM: [11]
48.6 µM: [47]
81.7 µM: [35]
not listed: [59]
> 100 µM: all other assays above

CC(C)(C)N/N=C(\C(=O)Nc1ccc([N+](=O)[O-])cc1[N+](=O)[O-])c1nc2ccc([N+](=O)[O-])cc2[nH]c1=O
not listed: [2] | [38]
> 100 µM: all other assays above

COC1=C(OC)C23CCc4ccc(OC)c(O)c4C2(CCN3)CC1=O (stereo not drawn)
not listed: [28]
> 100 µM: all other assays above

— PubChem BioAssay (NCI)
